Experimental data published in patent US10781229B2, “Tris- or neopentyl glycol-based amphiphiles and uses thereof” (Industry-University Cooperation Foundation Hanyang …, priority 2015, dated 2020).

Tests used:
[1] = molecular target: T1, MelBSt (Salmonella typhimurium, UniProt P30878); test: Trp to D2G FRET reversal by melibiose, functional state of solubilized MelBSt; type: biochemical; details: 1.0% by weight, solubilized at 23° C. for 30 minutes
T1 construct: made in house; host or cells: E. coli DW2, right-side-out membrane vesicles
T1 sequence (P30878 whole entry): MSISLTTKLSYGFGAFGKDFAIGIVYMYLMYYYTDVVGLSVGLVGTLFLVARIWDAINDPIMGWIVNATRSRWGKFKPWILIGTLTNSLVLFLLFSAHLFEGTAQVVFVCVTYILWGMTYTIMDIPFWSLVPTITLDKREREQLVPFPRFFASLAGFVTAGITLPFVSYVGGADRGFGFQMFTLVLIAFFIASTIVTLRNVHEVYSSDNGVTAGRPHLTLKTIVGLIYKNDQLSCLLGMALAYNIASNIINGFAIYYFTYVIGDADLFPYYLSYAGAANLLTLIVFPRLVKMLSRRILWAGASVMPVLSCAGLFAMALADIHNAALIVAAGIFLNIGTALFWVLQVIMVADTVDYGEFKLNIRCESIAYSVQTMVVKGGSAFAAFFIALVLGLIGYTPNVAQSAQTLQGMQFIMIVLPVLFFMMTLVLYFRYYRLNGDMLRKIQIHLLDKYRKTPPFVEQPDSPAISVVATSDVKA
Protocol: (§1) So as to investigate functional states of MelB proteins dissolved by amphipathic molecules, Førster resonance energy transfer (FRET) to 2′-(N-dansyl)aminoalkyl-1-thio-β-D-galactopyranoside (D^2G), as a fluorescence ligand, was measured in tryptophan (Trp). […] However, if a protein dissolved by an amphipathic molecule has activity, melibiose substitutes for the coupled D^2G molecule upon addition of the melibiose and thus energy transfer no longer occurs, thereby decreasing fluorescence intensity. Accordingly, the activity of the MelB protein dissolved in DDM or NDT-C11 can be determined by whether reversal of D^2G FRET occurs due to melibiose in Trp. Therefore, the FRET measurement method is an efficient method to measure the membrane protein structural stabilization ability of an amphipathic molecule.
(§2) In particular, a right-side-out (RSO) membrane vesicle was prepared by osmotic lysis of an E. coli DW2 cell containing MelBSt or MelBEc and re-suspended with 100 mM KPi (pH 7.5), followed by storing at −80° C. D^2G was provided by H. Ronald Kaback and Gerard Leblanc. A protein concentration of an RSO membrane vesicle in 100 mM KPi, pH 7.5, and 50 mM NaCl was 1 mg/ml concentration. […] An emission wavelength of MelBEc was measured at 465 nm and an emission wavelength of MelBSt was measured at 490 nm. […] Accordingly, fluorescence intensity is decreased. […]

[2] = molecular target: T2, MelBEc (Escherichia coli, UniProt P02921); test: Trp to D2G FRET reversal by melibiose, functional state of solubilized MelBEc; type: biochemical; details: 1.0% by weight, solubilized at 23° C. for 30 minutes
T2 construct: made in house; host or cells: E. coli DW2, right-side-out membrane vesicles
T2 sequence (P02921 whole entry): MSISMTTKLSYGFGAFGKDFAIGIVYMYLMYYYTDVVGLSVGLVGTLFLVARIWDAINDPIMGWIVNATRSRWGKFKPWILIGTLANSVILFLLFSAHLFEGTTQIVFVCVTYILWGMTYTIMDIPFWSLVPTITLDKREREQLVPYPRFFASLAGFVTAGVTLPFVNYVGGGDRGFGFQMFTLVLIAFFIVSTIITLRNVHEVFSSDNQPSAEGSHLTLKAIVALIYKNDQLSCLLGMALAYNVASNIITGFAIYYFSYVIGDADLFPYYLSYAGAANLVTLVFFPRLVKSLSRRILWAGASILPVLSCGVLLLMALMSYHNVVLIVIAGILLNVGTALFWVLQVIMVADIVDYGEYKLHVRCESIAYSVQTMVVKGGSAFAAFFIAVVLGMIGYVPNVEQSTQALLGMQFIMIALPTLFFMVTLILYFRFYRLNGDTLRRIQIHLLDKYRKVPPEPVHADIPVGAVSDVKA
Protocol: as §1, §2

[3] = Hydrodynamic radius and size distribution of micelles by dynamic light scattering (DLS); type: physicochemical
Protocol: A method of measuring the radius of a micelle is not specifically limited and may be any method generally known in the art. For example, the radius may be measured by a dynamic light scattering (DLS) experiment.
In particular, critical micellar concentrations (CMCs) were measured using hydrophobic fluorescence staining and diphenylhexatriene (DPH), and hydrodynamic radii (Rh) of micelles formed of each material were measured by a dynamic light scattering (DLS) experiment. Measured results are compared to values of DDM as an existing amphipathic molecule (detergent).
Meanwhile, size distributions of the micelles formed of TDTs and NDTs were measured using DLS. Results are illustrated in FIG. 5. TDTs or NDTs were respectively used in an amount of 0.5% by weight. As a result, micelles of TDTs or NDTs were measured as forming a single community.

[4] = molecular target: T3, melibiose permease (MelB), MelBSt (Salmonella typhimurium, UniProt P30878); test: MelB extraction efficiency and stability by SDS-PAGE and western immunoblotting; details: 1.5% by weight, 55° C., 90 minutes
T3 construct: made in house; host or cells: 'Salmonella typhimurium DW2 cell (melB and lacZY)', plasmid pK95AHB/WT MelBSt/CH10
T3 sequence (P30878 whole entry): as the sequence (P30878 whole entry) above
Protocol: Experiments to measure the extraction efficiency and structural stability of a Salmonella typhimurium melibiose permease (MelB) protein by TDTs or NDTs were conducted. The MelB protein was extracted using TDTs, NDTs, or DDM and then the amounts and structures of extracted proteins were quantitatively analyzed by SDS-PAGE and western immunoblotting. The concentrations of the used amphipathic molecules were 1.5% by weight. Protein extraction was carried out at four temperatures (0, 45, 55 or 65° C.) for 90 minutes to simultaneously evaluate the protein extraction efficiency and stabilization ability of the amphipathic molecules.
In particular, in accordance with a method disclosed in a paper (P. S. Chae, et al., Chemistry. 2013, 19, 15645-15651) published by the present inventors, a protein (MelBSt) was produced using a pK95AHB/WT MelBSt/CH10 plasmid and a Salmonella typhimurium DW2 cell (melB and lacZY) to encode wild-type MelB having a 10-His tag at a C-terminal. In accordance with a method disclosed in a paper (Nat. Commun. 2014, 5, 3009) published by A. S. Ethayathulla, et al., cell proliferation and membrane preparation was carried out. Protein analysis was performed using a Micro BCA kit (Thermo Scientific, Rockford, Ill.). So as to measure the solubilization/stability of MelBSt, a membrane sample including MelBSt (final protein concentration of 10 mg/mL) was mixed with a solubilization buffer (20 mM sodium phosphate, pH 7.5, 200 mM NaCl, 10% glycerol, and 20 mM melibiose) and 1.5% (w/v) DDM, TDTs or NDTs. An extracted product was incubated at four temperatures (0, 45, 55 and 65° C.) for 90 minutes. Ultracentrifugation was carried out for 45 minutes at 4° C. and 355,590 g by means of a Beckman Optima™ MAX ultracentrifuge and a TLA-100 rotor. Subsequently, 20 μg of a protein was separated by SDS-16% PAGE and then subjected to immunoblotting with a Penta-His-HRP antibody (Qiagen, Germantown, Md.).

Row | SMILES | Functional state of solubilized MelBSt (melibiose binding, FRET) [1] | Functional state of solubilized MelBEc (melibiose binding, FRET) [2] | Rh (hydrodynamic radius of micelles) [3] [nm] | MelB dissolved / solubilization ability [4]
1 | CCCCCCCCCCCCOC1OC(CO)C(OC2OC(CO)C(O)C(O)C2O)C(O)C1O [DDM, n-dodecyl-β-D-maltopyranoside, reference compound] | enable production of functional MelBSt proteins | completely lost | 3.4 ± 0.0 | hardly detected
2 | CCCCCCCCCCCC(CCCCCCCCCCC)COCC(CO[C@@H]1OC(CO)[C@@H](O)C(O)C1O)(CO[C@@H]1OC(CO)[C@@H](O)C(O)C1O)CO[C@@H]1OC(CO)[C@@H](O)C(O)C1O (some centres unmarked) [NDT-C11] | enable production of functional MelBSt proteins | effectively maintained | 3.5 ± 0.0 | most excellent
